Source: EP1566447A1, “Glimepiride- and insulin-induced glycosylphosphatidylinositol-specific phospholipase C regulation” (priority 2004, dated 2005)
Entries after “also recorded” stand apart in the source; their conditions may differ.

Columns and labels:
[1] = molecular target: T1, Hormone-sensitive lipase (HSL) (Homo sapiens, UniProt Q05469); test: selectivity: hormone-sensitive lipase assay; assay type: biochemical; conditions: 50 µM
T1 sequence (Q05469 1-1076): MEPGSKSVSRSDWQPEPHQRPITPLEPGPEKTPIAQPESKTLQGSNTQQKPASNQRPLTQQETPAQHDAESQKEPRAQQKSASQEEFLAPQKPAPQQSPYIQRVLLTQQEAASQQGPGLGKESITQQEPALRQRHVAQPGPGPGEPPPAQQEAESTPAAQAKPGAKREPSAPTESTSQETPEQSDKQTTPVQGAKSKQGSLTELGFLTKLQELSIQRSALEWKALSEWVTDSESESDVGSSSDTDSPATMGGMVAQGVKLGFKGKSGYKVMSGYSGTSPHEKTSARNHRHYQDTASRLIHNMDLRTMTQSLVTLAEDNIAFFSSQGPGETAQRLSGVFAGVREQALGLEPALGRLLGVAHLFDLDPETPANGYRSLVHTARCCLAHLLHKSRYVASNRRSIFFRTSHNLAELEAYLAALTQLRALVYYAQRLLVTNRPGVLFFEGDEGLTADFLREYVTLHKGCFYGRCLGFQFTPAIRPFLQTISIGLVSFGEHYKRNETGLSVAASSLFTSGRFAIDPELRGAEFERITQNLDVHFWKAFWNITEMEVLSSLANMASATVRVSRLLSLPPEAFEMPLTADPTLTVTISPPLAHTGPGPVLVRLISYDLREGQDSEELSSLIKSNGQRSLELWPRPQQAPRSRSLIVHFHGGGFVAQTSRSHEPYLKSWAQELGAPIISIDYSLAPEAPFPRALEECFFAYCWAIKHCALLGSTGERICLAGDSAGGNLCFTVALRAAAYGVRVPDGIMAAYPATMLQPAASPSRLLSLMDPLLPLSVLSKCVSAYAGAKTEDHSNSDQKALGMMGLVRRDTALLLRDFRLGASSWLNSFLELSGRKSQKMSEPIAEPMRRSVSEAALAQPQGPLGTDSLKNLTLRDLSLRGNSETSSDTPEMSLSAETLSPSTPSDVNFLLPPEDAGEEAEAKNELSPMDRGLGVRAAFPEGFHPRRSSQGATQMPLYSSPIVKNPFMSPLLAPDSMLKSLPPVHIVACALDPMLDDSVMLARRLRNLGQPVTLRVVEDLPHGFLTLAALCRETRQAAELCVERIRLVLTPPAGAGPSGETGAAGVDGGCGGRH
Procedure: Hormone-sensitive lipase (HSL) and lipoprotein lipase (LPL) were measured using a radiolabeled triolein droplet emulsion as described in "Vertesy et al., (2002) Journal Antibiotics 55:480-494". Pancreatic lipase (PL) was determined by incubation of 0.25 mmol tributyrin in 2 ml of 5 mM Tris/HCl (pH 6.5), 6 mM sodium taurodeoxycholate, 150 mM NaCl, 1 mM CaCl2 with porcine PL and colipase in the same buffer using a recording pH stat (stirring at 1000 rpm at 25°C) with the pH adjusted to 6.5. PC-PLC was assayed by incubation of 0.2 ml of 10 mM dipalmitoyllecithin, 0.1 ml of 10 mM SDC and 0.1 ml of 0.03 M CaCl2 with bacterial PC-PLC (in 50 mM Tris/HCl, pH 7.5, 0.1 % BSA) for 10 min at 37°C. The reaction was terminated by addition of 0.1 ml of 50 % TCA and subsequently of 2.5 ml of […]. After centrifugation (1500xg, 15 min), 0.2-ml portions of the upper methanol/water phase (~ 1.33 ml) was removed, supplemented with 0.5 ml of 60 % HClO4, then heated at 170°C for 1 h and finally analyzed for inorganic phosphate. Mammalian PI-PLC was measured by incubation of 0.1 ml of 10 mM PI, 0.1 ml of 0.8 % sodium deoxycholate, 0.1 % BSA, 0.2 ml of 100 mM sodium borate (pH 7.5) and rat liver PI-PLC for 20 min at 37°C. The reaction was terminated and further processed as described for the PC-PLC. […] Radioactive phosphatidic acid was detected by phosphorimaging. […]

Isolated rat adipocytes = test: glimepiride-induced redistribution of signaling proteins within DIGs; assay type: cell-based; conditions: max. effective conc. (50 µM)
GPI-PLC = conditions: read-out: IC50 for inhibition of the GPI-PLC; isolated intact hcDIGs; Fig. 4 Panels B, D

SMILES: CCCCCCCCCCCCP1(=O)O[C@@H]2[C@H](O)[C@@H](O)[C@H](O)[C@@H](O)[C@@H]2O1 (mixture of isomers) [GPI-2350, myo-inositol-1,2-cyclo-dodecylphosphonic acid]
- effect on lipase activity [1]: not significantly affected
- effect on glimepiride-induced redistribution from hcDIGs to IcDIGs (Isolated rat adipocytes): almost complete blockade; also recorded: almost completely abolished
- IC50 (GPI-PLC): 1 µM
